Common to all, as to assay: NCI anticancer screen, dose series, 48 h
The subject of assay [1] is CCRF-CEM leukemia.
Assay [2] has as its system HOP-62 NSCLC.
Assay [3] relates to NCI-H460 lung.
Assay [4] deals with OVCAR-3 ovarian.
For assay [5], the system named is SF-295 CNS.
Assay [6] deals with SNB-19 CNS.
Assay [7] has as its system U251 CNS.
For assay [8], the system named is UACC-257 melanoma.
The subject of assay [9] is UACC-62 melanoma.
Assay [10] relates to UO-31 renal.

Among the data in PubChem BioAssay (NCI) are TGI and GI50 values, retold here.

Structures are written as SMILES.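 How tested: cells in 96-well plates exposed to compound for 48 hours at five concentrations. The concentration for 50% growth inhibition is given as GI50. TGI marks complete inhibition of growth.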

With `O=C(/C=C/c1ccccc1)CC(=O)CCC(=O)Nc1ccc(Cl)cc1`, the TGI in assay [1], in [2], in [3], in assay [4], in assay [5] and in [6] was over 100 µM in each case. Also, the TGI in assay [7], in assay [8], in assay [9] and in assay [10] was over 100 µM each time.

As to `Cc1ccccc1C(=O)N1CCN(C(=O)c2ccccc2C)CC1`, the TGI in assay [1], in assay [2], in [3], in [4], in assay [5] and in assay [6] was over 100 µM throughout. Also, the TGI in assay [7], in assay [8], in assay [9] and in [10] was over 100 µM in each case.

As for `CN(C)CCNC(=O)Cn1ccc(=O)c2c([N+](=O)[O-])cccc21`, the TGI in [1], in assay [2], in [3], in assay [4], in assay [5] and in [6] was over 100 µM each time. Further, the TGI in assay [7], in assay [8], in assay [9] and in [10] was over 100 µM each time.

With `O=C(N[C@@H](C[Se][Se]C[C@H](NC(=O)c1ccc(Br)cc1F)C(=O)O)C(=O)O)c1ccc(Br)cc1F`, the GI50 in [1], in [2], in assay [3], in [4], in [5] and in assay [6] was over 100 µM throughout. Also, the GI50 in assay [7], in [8], in assay [9] and in assay [10] was over 100 µM throughout. Moreover, the TGI in [1], in [2], in assay [3], in [4], in [5] and in [6] was over 100 µM each time. For the same compound, the TGI in [7], in [8], in assay [9] and in assay [10] was over 100 µM in each case.

For the compound `CC(=O)c1ccc(O)c(CN(C2CCCCC2)C2CCCCC2)c1O`, the TGI in assay [1] was 1.88 µM; in [2], over 100 µM; in assay [3], over 100 µM; in assay [4], over 100 µM; in [5], over 100 µM; in [6] it was over 100 µM. The TGI in assay [7], in [8], in assay [9] and in assay [10] was over 100 µM throughout.

Take `O=c1oc2ccc(I)cc2c(=O)n1-c1ccc(Cl)cc1F`: the GI50 in assay [1] is 2.97 µM; in assay [2], 2 µM; in assay [3], 0.89 µM; in assay [4], 0.974 µM; in assay [5], 1.8 µM; in assay [6], 0.64 µM. The GI50 in assay [7] is 1.51 µM; in assay [8], 0.526 µM; in assay [9], 0.419 µM; in [10], 0.301 µM. Besides, the TGI in [1] is 46.6 µM; in [2], 7.42 µM; in assay [3] it was 13.1 µM; in [4] it was 12 µM; in [5] it was 3.69 µM; in [6], 58.7 µM. Further, the TGI was 24.5 µM in [7], 6.45 µM in assay [8], 2.28 µM in assay [9] and 3.24 µM in [10].

`CN1/C(=C\C=C\C2=[N+](C)c3ccccc3C2(C)C)C(C)(C)c2ccccc21`: the GI50 in assay [1] was 0.176 µM; in [2], 0.258 µM; in [3] it was 0.0541 µM; in assay [4], 0.0514 µM; in assay [5], 0.0336 µM; in assay [6], 0.067 µM. In addition, the GI50 in assay [7] is 0.0369 µM; in assay [8], 0.0386 µM; in assay [9], 0.124 µM; in assay [10], 0.229 µM. In addition, the TGI came out at 12.6 µM in assay [1]; 7.37 µM in assay [2]; 0.922 µM in [3]; 0.948 µM in assay [4]; 1.27 µM in assay [5]; 12 µM in assay [6]. Further, the TGI in [7] was found to be 5.21 µM; in assay [8] it was 0.452 µM; in assay [9] it was 1.45 µM; in [10] it was 3.23 µM.

Consider `Cn1cc(C2=C(c3cn(C4CCN(Cc5ccccn5)CC4)c4ccccc34)C(=O)NC2=O)c2ccccc21`, for which the GI50 in [1] was 3.75 µM; in assay [2] it was 12.1 µM; in assay [3] it was 4.92 µM; in assay [4], 3.82 µM; in assay [5], 3.49 µM; in [6], over 70.2 µM. Also, the GI50 in assay [7] was 3.74 µM; in assay [8], 4.73 µM; in assay [9], 5.12 µM. In addition, the TGI in assay [1] was over 100 µM; in assay [2], 54.9 µM; in assay [3], over 100 µM; in assay [4] it was over 100 µM; in [5] it was over 26.1 µM; in assay [6] it was over 100 µM. In addition, the TGI in assay [7], in assay [8] and in assay [9] was over 100 µM throughout.

Regarding `O=[N+]([O-])c1ccc(-c2ccc(-c3csc(Nc4ccccc4)n3)o2)cc1`, the TGI in assay [1] is 16.9 µM; in assay [2], over 100 µM; in assay [3] it was over 67 µM; in assay [4], 33.7 µM; in [5], over 86.4 µM; in assay [6], over 65.8 µM. Moreover, the TGI in [7] turned out to be 41.5 µM; in [8], 33.3 µM; in assay [9], 37.2 µM; in assay [10] it was 39 µM.

`COC(=O)C1(C(=O)OC)CC(=O)c2cc3c(cc2-c2c(cc(OC)c(OC)c2OC)C1)OCO3`: the TGI in assay [1], in assay [2], in assay [3], in assay [4], in [5] and in assay [6] was over 211 µM throughout. The TGI in [7], in assay [8] and in assay [9] was over 211 µM in each case.
